Data set [1] relates to FADD-deficient Jurkat T cells treated with TNF-α. Description: Inhibition of necroptosis (CICD) in FADD-deficient Jurkat T cells treated with TNF-α, ATP-based viability. It counts as cell-based, human. Particulars: for antinecroptotic (anti-CICD) activity, in words: FADD-deficient Jurkat cells, TNFα.
The mark [2] stands for this setting: Homo sapiens, Jurkat, 24 h, read-out: EC50 (μM) for inhibition of necroptosis.
Setting [3] is: 10 ng/mL human TNF-α, 24 hours, ATP-based viability, EC50 ± SD from at least two independent experiments, read-out: EC50 (μM) for inhibition of necroptosis.

As a reminder, the EC50 is the midpoint of the concentration-response curve. By melting point is commonly meant the temperature of the solid-liquid transition.

Read-outs that look alike come from different tables or passages of the source.

For `CN1C(=O)C(Cc2c[nH]c3c(Cl)cccc23)NC1=S` (stereo not drawn) [Compound 7-Cl-Nec-1], the EC50 in data set [1] (Jurkat FADD deficient cells treated with TNFα, read-out: EC50) amounted to 0.182 µM. In addition, the “increase in activity relative to Nec-1” value in data set [1] (addition of a chlorine to the phenyl ring of Nec-1) is “approximately 2.7 fold”. Turning to `COc1ccc([C@H]2[C@H]3CCc4cccc(OC)c4C3=NN2C(C)=O)cc1` (relative stereo) [Compound 180, (3R,3aR)-rel-2-acetyl-3,3a,4,5-tetrahydro-3-(4-methoxyphenyl)-9-methoxy-2H-benz[g]indazole], the “antinecroptotic (anti-CICD) activity, in words” value (from here on “antinecroptotic”) in data set [1] is on record as “loss of activity”. The concentration for a half-maximal effect (EC50) in data set [1] (setting [2]) was greater than 50 µM. Compound `COc1ccc([C@H]2[C@@H]3CCc4ccc(OC)cc4C3=NN2C=O)cc1` (relative stereo) [Compound 195, (3R,3aS)-rel-2-formyl-3,3a,4,5-tetrahydro-3-(4-methoxyphenyl)-8-methoxy-2H-benz[g] indazole] displayed a melting point of 166 to 168 °C.

With `COc1ccc2c(c1)C1=NN(C(C)=O)[C@@H](c3ccc(F)cc3)[C@@H]1CO2` (relative stereo) [Compound 211, (3R,3aS)-rel-2-acetyl-2,3,3a,4-tetrahydro-3-(4-fluorophenyl)-8-methoxy-[1]benzopyrano[4,3-c]pyrazole], the melting point lay in the range of 174 to 176 °C. In the case of `COc1ccc([C@H]2[C@H]3CCc4ccc(OC)cc4C3=NN2C(=O)COC(C)=O)cc1` (relative stereo) [Compound 150, (3R,3aR)-rel-2-acetoxyacetyl-3,3a,4,5-tetrahydro-3-(4-methoxyphenyl)-8-methoxy-2H-benz[g]indazole], the EC50 in data set [1] (setting [3]) was found to be 3.1 ± 0.17 µM. As for `COc1ccc2c(c1)CC[C@H]1C2=NN(C(C)=O)[C@H]1c1ccc(F)cc1` (relative stereo) [Compound 163, (3R,3aR)-rel-2-acetyl-3,3a,4,5-tetrahydro-3-(4-fluorophenyl)-7-methoxy-2H-benz[g]indazole], the “antinecroptotic” value in data set [1] is “loss of activity”. For the same compound, in data set [1] (setting [2]), the EC50 is greater than 100 µM. Consider `COc1ccc([C@H]2[C@H]3CCc4ccc([N+](=O)[O-])cc4C3=NN2C(C)=O)cc1` (relative stereo) [Compound 169, (3R,3aR)-rel-2-acetyl-3,3a,4,5-tetrahydro-3-(4-methoxyphenyl)-8-nitro-2H-benz[g]indazole], for which the “antinecroptotic” value in data set [1] is reported as “diminished inhibitory activity”. The EC50 in data set [1] (setting [2]) was found to be 3.5 ± 1.5 µM. `COc1ccc2c(c1)CC[C@@H]1C2=NN(C(C)=O)[C@H]1c1ccc(F)cc1` (relative stereo) [Compound 162, (3R,3aS)-rel-2-acetyl-3,3a,4,5-tetrahydro-3-(4-fluorophenyl)-7-methoxy-2H-benz[g]indazole]: the EC50 in data set [1] (setting [2]) is greater than 100 µM. Consider `COc1ccc2c(c1)C1=NN(C(C)=O)[C@@H](c3ccc(OCc4ccccc4)cc3)[C@H]1CC2` (relative stereo) [Compound 174, (3R,3aR)-rel-2-acetyl-3,3a,4,5-tetrahydro-3-(4-benzyloxyphenyl)-8-methoxy-2H-benz[g]indazole], for which the “antinecroptotic” value in data set [1] was “detrimental to activity to varying degrees”. The EC50 in data set [1] (setting [2]) is greater than 100 µM. Turning to `COc1ccc([C@H]2[C@H]3CCc4ccc(OC)cc4C3=NN2C(N)=S)cc1` (relative stereo) [Compound 152, (3R,3aR)-rel-2-carbothioamide-3,3a,4,5-tetrahydro-3-(4-methoxyphenyl)-8-methoxy-2H-benz[g]indazole], the EC50 in data set [1] (setting [3]) came out at 8.8 ± 3 µM. Take `COc1ccc([C@H]2[C@H]3C[C@H](N(C)C)c4ccc(OC)cc4C3=NN2C(C)=O)cc1` (relative stereo) [Compound 146, (3R,3aR,5S)-rel-2-acetyl-5-(N,N-dimethylamino)-3,3a,4,5-tetrahydro-3-(4-methoxyphenyl)-8-methoxy-2H-benz[g]indazole]: in data set [1] (setting [2]), the EC50 was found to be 5.1 ± 2.2 µM. For the compound `CC(=O)N1N=C2c3cc(O)ccc3CC[C@@H]2[C@@H]1c1ccc(O)cc1` (relative stereo) [Compound 176, (3R,3aR)-rel-2-acetyl-3,3a,4,5-tetrahydro-3-(4-hydroxyphenyl)-8-hydroxy-2H-benz[g]indazole], the EC50 in data set [1] (setting [2]) was greater than 100 µM. As to `COc1ccc2c(c1)C1=NN(C(C)=O)[C@@H](c3ccc(SC)cc3)[C@H]1CC2` (relative stereo) [Compound 182, (3R,3aR)-rel-2-acetyl-3,3a,4,5-tetrahydro-3-(4-thiomethoxyphenyl)-8-methoxy-2H-benz[g]indazole], the concentration giving a half-maximal response (EC50) in data set [1] (setting [3]) was determined as 1.1 ± 0.69 µM. In addition, in data set [1], the “antinecroptotic” value was “detrimental to activity to varying degrees”. On to `COc1ccc([C@H]2[C@@H]3CCc4ccc(F)cc4C3=NN2C(C)=O)cc1` (relative stereo) [Compound 170, (3R,3aS)-rel-2-acetyl-3,3a,4,5-tetrahydro-3-(4-methoxyphenyl)-8-fluoro-2H-benz[g]indazole], for which the EC50 in data set [1] (setting [2]) was 2.7 ± 0.82 µM.

On to `CNC(=S)N1N=C2c3cc(OC)ccc3CC[C@@H]2[C@@H]1c1ccc(OC)cc1` (relative stereo) [Compound 154, (3R,3aR)-rel-2-carbothioamide-3,3a,4,5-tetrahydro-3-(4-methoxyphenyl)-8-methoxy-N-methyl-2H-benz[g]indazole], for which the EC50 in data set [1] (setting [3]) was 7.9 ± 2 µM. Regarding `COc1ccc([C@H]2[C@H]3CCc4ccc(F)cc4C3=NN2C(C)=O)cc1` (relative stereo) [Compound 171, (3R,3aR)-rel-2-acetyl-3,3a,4,5-tetrahydro-3-(4-methoxyphenyl)-8-fluoro-2H-benz[g]indazole], the “antinecroptotic” value in data set [1] was “tolerated”. Further, the EC50 in data set [1] (setting [2]) was 0.28 ± 0.032 µM. As for `COc1ccc([C@H]2[C@H]3CCc4ccc(OC)cc4C3=NN2C=O)cc1` (relative stereo) [Compound 147, (3R,3aR)-rel-2-formyl-3,3a,4,5-tetrahydro-3-(4-methoxyphenyl)-8-methoxy-2H-benz[g]indazole], the EC50 in data set [1] (setting [2]) stood at 0.92 ± 0.091 µM. As for `CCN1N=C2c3cc(OC)ccc3CC[C@@H]2[C@@H]1c1ccc(OC)cc1` (relative stereo) [Compound 213, (3R,3aR)-rel-2-ethyl-3,3a,4,5-tetrahydro-3-(4-methoxyphenyl)-8-methoxy-2H-benz[g]indazole], the “antinecroptotic” value in data set [1] is given as “complete loss of necroptosis inhibitory activity”. Also, in data set [1] (setting [2]), the EC50 is greater than 100 µM.

In the case of `COc1ccc([C@H]2[C@H]3CCc4ccc(OC)cc4C3=NN2C(N)=O)cc1` (relative stereo) [Compound 153, (3R,3aR)-rel-2-carboxamide-3,3a,4,5-tetrahydro-3-(4-methoxyphenyl)-8-methoxy-2H-benz[g]indazole], in data set [1] (setting [3]), the EC50 was 4.3 ± 2.9 µM. Take `COc1ccc2c(c1)C1=NN(C(C)=O)[C@@H](c3ccc(O)cc3)[C@H]1CC2` (relative stereo) [Compound 175, (3R,3aR)-rel-2-acetyl-3,3a,4,5-tetrahydro-3-(4-hydroxyphenyl)-8-methoxy-2H-benz[g]indazole]: the “antinecroptotic” value in data set [1] was “detrimental to activity to varying degrees”. For the same compound, the EC50 in data set [1] (setting [2]) is 5.9 ± 1.4 µM.

For `COc1ccc([C@H]2[C@@H]3CCc4ccc([N+](=O)[O-])cc4C3=NN2C(C)=O)cc1` (relative stereo) [Compound 168, (3R,3aS)-rel-2-acetyl-3,3a,4,5-tetrahydro-3-(4-methoxyphenyl)-8-nitro-2H-benz[g]indazole], the EC50 in data set [1] (setting [2]) is greater than 100 µM.

For the compound `CN1C(=O)N[C@H](Cc2c[nH]c3c(Cl)cccc23)C1=O` [R-7-Cl—O-Nec-1], in data set [1] (Homo sapiens, Jurkat FADD deficient cells treated with TNFα, read-out: EC50), the EC50 was determined as 0.047 µM. Further, the “potency at inhibiting CICD relative to the (S)-enantiomer” value in data set [1] (enantiomers of 7-Cl—O-Nec-1) is on record as “about 4 times”.

Turning to `COc1ccc([C@H]2[C@H]3C[C@H](N)c4ccc(OC)cc4C3=NN2C(C)=O)cc1` (relative stereo) [Compound 145, (3R,3aR,5S)-rel-2-acetyl-5-amino-3,3a,4,5-tetrahydro-3-(4-methoxyphenyl)-8-methoxy-2H-benz[g]indazole], the EC50 in data set [1] (setting [2]) was determined as 1.2 ± 0.38 µM.

In the case of `COc1ccc([C@H]2[C@H]3CCc4c(OC)cccc4C3=NN2C(C)=O)cc1` (relative stereo) [Compound 173, (3R,3aR)-rel-2-acetyl-3,3a,4,5-tetrahydro-3-(4-methoxyphenyl)-6-methoxy-2H-benz[g]indazole], the “antinecroptotic” value in data set [1] is recorded as “loss of activity”. Besides, the EC50 in data set [1] (setting [2]) was greater than 100 µM. As for `COc1ccc([C@H]2[C@H]3CCc4ccc(OC)cc4C3=NN2C(=N)N)cc1` (relative stereo) [Compound 157, (3R,3aR)-rel-2-carboxamidine-3,3a,4,5-tetrahydro-3-(4-methoxyphenyl)-8-methoxy-2H-benz[g]indazole], in data set [1] (setting [3]), the EC50 is greater than 100 µM. Take `COc1ccc([C@H]2[C@H]3CCc4ccc(OCCN5CCOCC5)cc4C3=NN2C(C)=O)cc1` (relative stereo) [Compound 183, (3R,3aR)-rel-2-acetyl-3,3a,4,5-tetrahydro-3-(4-methoxyphenyl)-8-(4-morpholino)ethoxy-2H-benz[g]indazole]: the EC50 in data set [1] (setting [3]) is greater than 50 µM. Besides, in data set [1], the “antinecroptotic” value was “diminished activity”.

For the compound `COc1ccc2c(c1)C1=NN(C(C)=O)[C@@H](c3ccc(O[N+](=O)[O-])cc3)[C@H]1CC2` (relative stereo) [Compound 172, (3R,3aR)-rel-2-acetyl-3,3a,4,5-tetrahydro-3-(4-nitroxyphenyl)-8-methoxy-2H-benz[g]indazole], the EC50 in data set [1] (setting [2]) was found to be 1.8 ± 0.38 µM. As to `COCC(=O)N1N=C2c3cc(OC)ccc3CC[C@@H]2[C@@H]1c1ccc(OC)cc1` (relative stereo) [Compound 158, (3R,3aR)-rel-2-methoxyacetyl-3,3a,4,5-tetrahydro-3-(4-methoxyphenyl)-8-methoxy-2H-benz[g]indazole], the EC50 in data set [1] (setting [3]) worked out at 0.44 ± 0.24 µM. For the compound `COc1ccc([C@H]2[C@H]3CCc4ccc(OCc5ccccc5)cc4C3=NN2C(C)=O)cc1` (relative stereo) [Compound 181, (3R,3aR)-rel-2-acetyl-3,3a,4,5-tetrahydro-3-(4-methoxyphenyl)-8-benzyloxy-2H-benz[g]indazole], the “antinecroptotic” value in data set [1] was “diminished activity”. Further, in data set [1] (setting [2]), the EC50 was 5 ± 0.7 µM.

The values above are taken from patent US20130158024A1, “TRICYCLIC NECROSTATIN COMPOUNDS” (priority 2005, published 2013).
